# Results: ChEMBL document CHEMBL3351223, “Single Diastereomer of a Macrolactam Core Binds Specifically to Myeloid Cell Leukemia 1 (MCL1)” (ACS Med Chem Lett, 2014)
# Active and inactive are the calls of the source. The calls are words filed in the database; no cut-off is given here.
# Key:
# [1] = target: T1, Induced myeloid leukemia cell differentiation protein Mcl-1 (Homo sapiens, UniProt Q07820); details: 25 uM
# [2] = target: T1, Induced myeloid leukemia cell differentiation protein Mcl-1
# [3] = target: T1, Induced myeloid leukemia cell differentiation protein Mcl-1; remark: listed apart in the source
# [4] = target: T1, Induced myeloid leukemia cell differentiation protein Mcl-1; remark: listed apart in the source
# Description: Binding affinity to human MCL1 (173 to 329 aa) using TAMRA-labeled Noxa peptide preincubated for 30 mins by fluorescent polarization assay
# [5] = target: T1, Induced myeloid leukemia cell differentiation protein Mcl-1; remark: listed apart in the source
# Description: Binding affinity to human MCL1 (173 to 329 aa) at 250 uM by differential scanning calorimetry assay
# [6] = target: T1, Induced myeloid leukemia cell differentiation protein Mcl-1; details: 800 uM
# [7] = target: T1, Induced myeloid leukemia cell differentiation protein Mcl-1; details: 100 uM
# T1 sequence (Q07820 whole entry): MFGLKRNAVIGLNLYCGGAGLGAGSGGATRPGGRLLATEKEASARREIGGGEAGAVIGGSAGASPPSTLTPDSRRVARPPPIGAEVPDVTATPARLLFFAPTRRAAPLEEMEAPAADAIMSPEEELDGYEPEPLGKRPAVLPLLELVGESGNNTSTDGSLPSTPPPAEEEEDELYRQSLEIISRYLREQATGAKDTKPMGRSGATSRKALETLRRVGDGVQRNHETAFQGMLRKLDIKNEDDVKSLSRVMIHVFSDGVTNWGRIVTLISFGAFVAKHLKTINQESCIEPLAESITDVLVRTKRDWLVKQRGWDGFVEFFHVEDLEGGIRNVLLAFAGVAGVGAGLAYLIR
SMILES,IC50 [4] [µM],ΔTm [5] [°C],further results
C[C@@H]1CN([C@@H](C)CO)C(=O)c2cccc(NS(=O)(=O)c3ccccc3)c2O[C@@H]1CN(C)C(=O)Nc1ccc(C(F)(F)F)cc1,–,–,ΔTm [1]: 0.3 °C
NS(=O)(=O)c1ccc(F)cc1,–,–,Activity [2]: inactive; Activity [3]: inactive
C[C@@H]1CN([C@@H](C)C(=O)O)C(=O)c2cccc(NS(=O)(=O)Cc3ccccc3)c2O[C@@H]1CN(C)C(=O)Nc1ccc(C(F)(F)F)cc1,> 50,1.4,–
CN(C)C(=O)Nc1ccc(C(F)(F)F)cc1,–,–,Activity [2]: inactive; Activity [3]: inactive
C[C@@H]1CN([C@@H](C)C(=O)O)C(=O)c2cccc(NS(=O)(=O)c3ccccc3F)c2O[C@@H]1CN(C)C(=O)Nc1ccc(C(F)(F)F)cc1,21.3,1.9,–
C[C@@H]1CN([C@@H](C)CO)C(=O)c2cccc(NS(=O)(=O)c3ccc(F)cc3)c2O[C@@H]1CN(C)C(=O)Nc1ccc(C(F)(F)F)cc1,–,–,ΔTm [1]: 0.6 °C; Activity [6]: inactive; ΔTm [7]: 1.9 °C
C[C@@H]1CN([C@@H](C)C(=O)O)C(=O)c2cccc(NS(=O)(=O)c3ccc(F)cc3)c2O[C@@H]1CN(C)C(=O)Nc1ccccc1C(F)(F)F,> 50,0.2,–
C[C@@H]1CN([C@@H](C)C(=O)O)C(=O)c2cccc(NS(=O)(=O)c3cccc(F)c3)c2O[C@@H]1CN(C)C(=O)Nc1ccc(C(F)(F)F)cc1,4.1,3.4,–
C[C@@H]1CN([C@@H](C)C(=O)O)C(=O)c2cccc(NS(=O)(=O)c3ccccc3)c2O[C@@H]1CN(C)C(=O)Nc1ccc(C(F)(F)F)cc1,10,2.8,–
C[C@@H]1CN([C@@H](C)C(=O)O)C(=O)c2cccc(NS(=O)(=O)CCc3ccccc3)c2O[C@@H]1CN(C)C(=O)Nc1ccc(C(F)(F)F)cc1,> 50,0.4,–

# More lines, main results first:
IC50 [4] [µM],ΔTm [5] [°C],SMILES,further results
> 50,0.2,COc1ccc(NC(=O)N(C)C[C@H]2Oc3c(NS(=O)(=O)c4ccc(F)cc4)cccc3C(=O)N([C@@H](C)C(=O)O)C[C@H]2C)cc1,–
> 50,-0.1,C[C@@H]1CN([C@@H](C)C(=O)O)C(=O)c2cccc(NS(=O)(=O)c3ccc(F)cc3)c2O[C@@H]1CN(C)C(=O)Nc1cccc2ccccc12,–
> 25,0.2,C[C@@H]1CN([C@@H](C)C(=O)O)C(=O)c2cccc(NS(=O)(=O)c3ccc(F)cc3)c2O[C@@H]1CN(C)C(=O)Nc1cccc(C(F)(F)F)c1,–
> 50,0.2,C[C@@H]1CN([C@@H](C)C(=O)O)C(=O)c2cccc(NS(=O)(=O)c3ccc(F)cc3)c2O[C@@H]1CN(C)C(=O)Nc1ccccc1,–
> 25,0.8,C[C@@H]1CN([C@@H](C)C(=O)O)C(=O)c2cccc(NS(=O)(=O)c3ccc(F)cc3)c2O[C@@H]1CN(C)C(=O)Nc1ccc2ccccc2c1,–
